The source of these data is patent US7605175B2, “Inhibitors of cyclin-dependent kinases, compositions and uses related thereto” (GPC Biotech AG, priority 2001, dated 2009).

In one test the target is T1, Cdk4/cyclin D1 (Homo sapiens, UniProt P11802).
T1 construct: made in house; host or cells: Sf9 insect cells
The test is described as follows: Biochemical kinase assay Cdk4/cyclin D1. The note with it: Table 6. The text has this:
(§1) Enzymes: Cdc2/cyclin B was obtained from commercial sources. Cdk2/his-cyclin Eshort was expressed in Sf9 cells. Cdk2/cyclin A, cdk4/cyclin D1, and cdk6/cyclin D2 were expressed in Sf9 cells. Protein kinase A (catalytic subunit, from bovine heart) and protein kinase C (mixed isozymes from rat brain) were obtained from commercial sources.
(§2) Substrates: Histone H1 was from commercial sources. GST-Rb is glutathione-S-trans-ferase fused to the N-terminal of residues 379-928 of the Rb protein.
(§3) Cdk2/cyclin E, Cdk2/cyclin A, Cdk4/cyclin D1, and Cdk6/cyclin D2 activity was determined using a glutathione-sepharose capture assay. The enzymes were expressed in Sf9 insect cells as heterodimers, and the substrate (GST-Rb) was glutathione-S-transferase fused to residues 379 to 928 of Rb retinoblastoma protein, expressed in E. coli. The assay solution contained 50 mM Tris.HCl, 10 mM MgCl2, 1 mM dithiothreitol, 50 μM adenosine triphosphate, 2 μCi [γ-^33P]adenosine triphosphate, 10% dimethylsulfoxide (from compounds), pH 7.5, 40 μg GST-Rb, and enzyme in a 100 μL volume. Compounds were added at various concentrations between 1 nM and 10 μM. The reaction was allowed to proceed for 15 min at 30° C. and was stopped by the addition of 70 μL of stop solution (237 mM disodium ethylene-diamine tetraacetate, 105 mM adenosine triphosphate, pH 8.0). The GST-Rb was captured by binding to glutathione-sepharose bead (Amersham) for 110 min, and the suspension was filtered through a glass fiber filter. After washing the retained beads five time with phosphate-buffered saline containing 0.3% (w/v) Tween-20, the amount of ^33P incorporated was determined by scintillation counting after adding 100 μL scintillant. Relative activity was determined by dividing the amount of radioactivity incorporated in the presence of compound by the amount of radioactivity incorporated in a control experiment containing DMSO alone but no compound. The background radioactivity, determined in an experiment containing 50 mM disodium ethylenediamine tetraacetate in place of compound, was subtracted from all results before calculations.

A further test addresses T2, Cdk2/cyclin E (Homo sapiens, UniProt P24941).
T2 construct: made in house; host or cells: Sf9 insect cells
In words: Biochemical kinase assay Cdk2/cyclin E. To be noted: Table 6.
From the text: as §1, §2, §3

The next test has as its target T3, Cdc2/cyclin B (Homo sapiens, UniProt P06493).
T3 construct: purchased
In words: Biochemical kinase assay Cdc2/cyclin B. To be noted: Table 6.
From the text: as §1, §2
Assays: Cdc2/cyclinB activity was determined by measuring incorporation of radio-activity from adenosine [γ-^32P]triphosphate into Histone H1 using a TCA precipitation assay. Cdc2/cyclin B kinase and Histone H1 were obtained from commercial sources. The final assay solution contained 50 mM Tris.HCl, 10 mM MgCl2, 1 mM dithiothreitol, 50 μM adenosine triphosphate, 2 μCi ^32P, 10% dimethylsulfoxide (from compounds), pH 7.5, 20 μg Histone H1, 6 U enzyme in a 50 μL volume. Compounds were added at various concentrations between 1 nM and 10 μM. The reaction was started with the addition of enzyme, allowed to proceed for 20 min at 30° C., and stopped by the addition of 20 μL of stop solution (237 mM disodium ethylenediamine tetraacetate, 105 mM adenosine triphosphate, pH 8.0). The protein was precipitated by the addition of 35 μL 70% (w/v) trichloroacetic acid, and the precipitate was captured on a 96-well glass fiber filter plate (Millipore, Inc.), which had been wet with 25% (w/v) trichloroacetic acid. The filter was washed ten times with 25% (w/v) trichloroacetic acid, and the amount of incorporated ^32P was determined by scintillation counting after adding 100 μL scintillant (Microscint 20, Packard Instruments). Relative activity was determined by dividing the amount of radioactivity incorporated in the presence of compound by the amount of radioactivity incorporated in a control experiment containing DMSO alone but no compound. The background radioactivity, determined in an experiment containing 50 mM EDTA in place of compound, was subtracted from all results before calculations.

The test system of the next test is HCT-116 cells. The test is described as follows: Calcein AM viability assay, HCT-116. Format: cell-based. To be noted: Homo sapiens, HCT-116, read-out: HCT-116 viability IC50. Here is the method: The potency of Cdk inhibitors, as measured by loss of cellular viability, was determined with the Calcein AM assay (Molecular Probes). Calcein AM is a substrate of intracellular esterases, which is cleaved only in viable cells to generate a fluorescent product that can be quantified with a fluorescent plate reader. The fluorescent signal is proportional to the number of viable cells, and thus loss of signal in response to the exposure of cells to Cdk inhibitors correlates with a loss of viability. This assay can distinguish cell cycle arrest, in which cells may still by viable, from loss of viability and is thus well suited for the evaluation of Cdk inhibitors. A compound that is a potent cytotoxic, may cause significant loss of cell viability in such assay.
Cellular IC50's were determined in the human colorectal carcinoma cell line, HCT-116, and the normal human fibroblast, IMR90. Protein adjusted IC50's were also determined in HCT-116.
HCT-116 or IMR90 cells were recovered from sub-confluent plates by trypsinization and 1,000 or 4,000 cells, respectively, were plated in 24-well dishes and incubated overnight at 37° C., 5% CO2. HCT-116 cells were cultured in RPMI-1640, 10% FCS, and IMR90 cells were cultured in Minimum Essential Medium-alpha, 10% FCS. After overnight incubation to allow adherence, the media was aspirated from each well and replaced with media containing a test compound at a concentration from 0 to 250 nM, spanning a total of 7 doses. The plates were returned to the incubator and cultured for an additional 72 hours (3 days). […] After 72-hours incubation with the test compound, the cells were washed twice with 1×PBS, taking special care to remove all residual buffer.
A 5 μM Calcein AM solution was prepared by dissolving a […] aliquot of Calcein (Molecular Probes catalog # C3100) in 50 μl DMSO. After the Calcein had completely dissolved (10 minutes at room temperature), it was diluted into 10 ml PBS. Calcein/PBS (0.5 ml) was added to each well. The plates were incubated for 75 minutes at 37° C. (protected from light) and the fluorescent signal was read on a fluorescent plate reader (excitation 485/20 and emission 530/25).

Usually IC50 stands for the concentration at which inhibition is half-maximal.

T1 sequence (P11802 whole entry, species assumed): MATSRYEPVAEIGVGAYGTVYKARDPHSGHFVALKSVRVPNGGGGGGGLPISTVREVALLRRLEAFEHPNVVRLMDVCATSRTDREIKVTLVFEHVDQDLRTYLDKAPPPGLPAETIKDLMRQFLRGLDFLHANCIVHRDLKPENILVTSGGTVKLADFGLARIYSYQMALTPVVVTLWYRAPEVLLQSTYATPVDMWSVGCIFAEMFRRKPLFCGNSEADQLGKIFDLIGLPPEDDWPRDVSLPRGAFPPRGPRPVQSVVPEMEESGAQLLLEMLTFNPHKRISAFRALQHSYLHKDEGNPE
T1 sequence (P24385 whole entry partner, species assumed): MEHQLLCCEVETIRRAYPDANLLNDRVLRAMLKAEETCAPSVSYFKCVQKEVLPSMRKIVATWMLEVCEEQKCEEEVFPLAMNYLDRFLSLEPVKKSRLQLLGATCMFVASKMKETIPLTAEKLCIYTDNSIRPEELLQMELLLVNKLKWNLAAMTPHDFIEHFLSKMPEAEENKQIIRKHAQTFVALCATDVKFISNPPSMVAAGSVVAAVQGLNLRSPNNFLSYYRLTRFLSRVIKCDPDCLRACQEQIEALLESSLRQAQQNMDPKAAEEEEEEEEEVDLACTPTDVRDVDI
T3 sequence (P06493 whole entry, species assumed): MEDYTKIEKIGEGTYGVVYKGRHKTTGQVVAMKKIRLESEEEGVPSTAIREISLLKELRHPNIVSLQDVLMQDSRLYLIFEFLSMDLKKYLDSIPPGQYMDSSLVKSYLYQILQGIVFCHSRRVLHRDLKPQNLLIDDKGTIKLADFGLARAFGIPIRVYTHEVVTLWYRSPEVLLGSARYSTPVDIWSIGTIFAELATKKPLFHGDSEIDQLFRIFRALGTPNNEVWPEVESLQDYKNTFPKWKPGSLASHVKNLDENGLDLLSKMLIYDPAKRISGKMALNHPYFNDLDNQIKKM
T3 sequence (P14635 whole entry partner, species assumed): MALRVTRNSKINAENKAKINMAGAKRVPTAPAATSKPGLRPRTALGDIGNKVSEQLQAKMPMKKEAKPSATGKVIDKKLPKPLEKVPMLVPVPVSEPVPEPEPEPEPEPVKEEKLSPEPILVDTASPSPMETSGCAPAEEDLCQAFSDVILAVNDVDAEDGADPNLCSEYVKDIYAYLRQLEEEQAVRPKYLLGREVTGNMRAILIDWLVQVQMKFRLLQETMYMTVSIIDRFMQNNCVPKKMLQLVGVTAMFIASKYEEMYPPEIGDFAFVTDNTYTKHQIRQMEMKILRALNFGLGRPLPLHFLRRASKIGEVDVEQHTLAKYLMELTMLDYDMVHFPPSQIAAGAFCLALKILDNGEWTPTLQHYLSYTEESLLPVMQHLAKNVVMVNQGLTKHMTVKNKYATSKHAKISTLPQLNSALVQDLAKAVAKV

Regarding `Cc1cc(-c2[nH]nc3c2C(=O)c2c(NC(=O)NN4CCOCC4)cccc2-3)ccc1OCCN1CCN(C(C)C)CC1` [Compound A24], the IC50 on Cdk4/cyclin D1 is below 100 nM; on Cdk2/cyclin E, below 10 nM; at Cdc2/cyclin B it was below 10 nM.

In the case of `Cc1cc(-c2[nH]nc3c2C(=O)c2c(NC(=O)NN4CCOCC4)cccc2-3)ccc1OCCN1CCCC1` [Compound A25], the IC50 against Cdk4/cyclin D1, against Cdk2/cyclin E and on Cdc2/cyclin B was below 100 nM throughout.

For `CCOC(=O)CN1CCN(NC(=O)Nc2cccc3c2C(=O)c2c-3n[nH]c2-c2ccc(OCCN3CCCC3)cc2)CC1` [Compound A26], the half-inhibitory concentration (IC50) on Cdk4/cyclin D1, against Cdk2/cyclin E and against Cdc2/cyclin B was below 100 nM in each case.

Turning to `O=C(Nc1cccc2c1C(=O)c1c(-c3ccc(OCCN4CCOCC4)c(F)c3)n[nH]c1-2)NN1CCOCC1` [Compound A27], the figures for the IC50 against Cdk4/cyclin D1, against Cdk2/cyclin E and against Cdc2/cyclin B were below 100 nM, below 100 nM and below 10 nM, respectively.

For the molecule `O=C(Nc1cccc2c1C(=O)c1c(-c3ccc(OCCN4CCOCC4)cc3Cl)n[nH]c1-2)NN1CCOCC1` [Compound A28], the IC50 was below 1000 nM at Cdk4/cyclin D1, below 100 nM on Cdk2/cyclin E and below 100 nM against Cdc2/cyclin B.

Turning to `Cc1cc(OCCN2CCCC2)ccc1-c1[nH]nc2c1C(=O)c1c(NC(=O)NN3CCOCC3)cccc1-2` [Compound A29], the IC50 is below 100 nM at Cdk4/cyclin D1, below 10 nM against Cdk2/cyclin E and below 100 nM against Cdc2/cyclin B.

In the case of `COc1cc(-c2[nH]nc3c2C(=O)c2c(NC(=O)NN4CCOCC4)cccc2-3)ccc1OCCN1CCCC1` [Compound A31], the IC50 against Cdk4/cyclin D1, against Cdk2/cyclin E and at Cdc2/cyclin B was below 100 nM each time.

Regarding `CC(C)C(N)C(=O)OCCN1CCN(NC(=O)Nc2cccc3c2C(=O)c2c-3n[nH]c2-c2ccc(OCCN3CCCC3)cc2)CC1` (centres unmarked) [Compound A33], the IC50 on Cdk4/cyclin D1, against Cdk2/cyclin E and on Cdc2/cyclin B was below 100 nM in each case.

Regarding `CN(C)C(=O)COc1ccc(-c2[nH]nc3c2C(=O)c2c(NC(=O)NN4CCOCC4)cccc2-3)cc1` [Compound A34], the values for the IC50 against Cdk4/cyclin D1, against Cdk2/cyclin E and at Cdc2/cyclin B were below 100 nM, below 10 nM and below 100 nM, respectively.

For `Cc1noc(COc2ccc(-c3[nH]nc4c3C(=O)c3c(NC(=O)NN5CCOCC5)cccc3-4)cc2)n1` [Compound A35], the IC50 on Cdk4/cyclin D1 is below 100 nM; against Cdk2/cyclin E, below 100 nM; at Cdc2/cyclin B, below 10 nM.

Turning to `O=C(Nc1cccc2c1C(=O)c1c-2n[nH]c1-c1ccc(OCC(=O)N2CCOCC2)cc1)NN1CCOCC1` [Compound A36], the IC50 against Cdk4/cyclin D1, against Cdk2/cyclin E and against Cdc2/cyclin B was below 100 nM throughout.

Take `CC(C)c1nn(-c2c(Cl)cc(Cl)cc2Cl)c2nc(Cc3ccc(NS(=O)(=O)CCCN4CCCC4)cc3)[nH]c(=O)c12` [Compound A38]: the IC50 was below 1000 nM against Cdk4/cyclin D1, below 100 nM at Cdk2/cyclin E and below 1000 nM on Cdc2/cyclin B.

As for `CC(C)c1nn(-c2c(Cl)cc(Cl)cc2Cl)c2nc(Cc3ccc(NS(=O)(=O)CCCN4CCN(C(C)C)CC4)cc3)[nH]c(=O)c12` [Compound A39], the IC50 on Cdk4/cyclin D1 is below 1000 nM; against Cdk2/cyclin E it was below 100 nM; against Cdc2/cyclin B it was below 1000 nM.

For the molecule `CC(C)OC(=O)CN1CCN(NC(=O)Nc2cccc3c2C(=O)c2c-3n[nH]c2-c2ccc(OCCN3CCCC3)cc2)CC1` [Compound A40], the IC50 against Cdk4/cyclin D1, on Cdk2/cyclin E and against Cdc2/cyclin B was below 100 nM throughout.

Turning to `CN(C)C(=O)CN1CCN(NC(=O)Nc2cccc3c2C(=O)c2c-3n[nH]c2-c2ccc(OCCN3CCCC3)cc2)CC1` [Compound A41], the concentration for half-maximal inhibition (IC50) at Cdk4/cyclin D1 was below 100 nM; against Cdk2/cyclin E, below 100 nM; against Cdc2/cyclin B it was below 1000 nM.

Turning to `CN1CCN(NC(=O)Nc2cccc3c2C(=O)c2c-3n[nH]c2-c2ccc(OCC(=O)N3CCCC3)cc2)CC1` [Compound A44], the IC50 at Cdk4/cyclin D1 is below 100 nM; against Cdk2/cyclin E it was below 100 nM; against Cdc2/cyclin B it was below 10 nM.

With `Cc1noc(COc2ccc(-c3[nH]nc4c3C(=O)c3c(NC(=O)NN5CCN(C)CC5)cccc3-4)cc2)n1` [Compound A45], the concentration for half-maximal inhibition (IC50) is below 100 nM on Cdk4/cyclin D1, below 100 nM at Cdk2/cyclin E and below 10 nM on Cdc2/cyclin B.

For `O=C(Nc1cccc2c1C(=O)c1c-2n[nH]c1-c1ccc(OCC(=O)N2CCCC2)cc1)NN1CCOCC1` [Compound A46], the IC50 on Cdk4/cyclin D1 is below 1000 nM; against Cdk2/cyclin E, below 100 nM; at Cdc2/cyclin B, below 10 nM.

For the molecule `O=C(Nc1cccc2c1C(=O)c1c-2n[nH]c1-c1ccc(S(=O)(=O)N2CCNCC2)cc1)NN1CCOCC1` [Compound A56], the IC50 was below 1000 nM against Cdk4/cyclin D1, below 100 nM on Cdk2/cyclin E and below 100 nM on Cdc2/cyclin B.

In the case of `CC(C)N1CCN(S(=O)(=O)c2ccc(-c3[nH]nc4c3C(=O)c3c(NC(=O)NN5CCOCC5)cccc3-4)cc2)CC1` [Compound A57], the IC50 was below 100 nM on Cdk4/cyclin D1, below 10 nM against Cdk2/cyclin E and below 10 nM at Cdc2/cyclin B.

Regarding `Cc1nc(Cc2nc3c(c(C(C)C)nn3-c3c(Cl)cccc3Cl)c(=O)[nH]2)cs1` [Compound A58], the IC50 against Cdk4/cyclin D1 is below 10000 nM; at Cdk2/cyclin E it was below 10 nM; on Cdc2/cyclin B, below 10000 nM.

Consider `CC(C)c1nn(-c2c(Cl)cccc2Cl)c2nc(Cc3ccc(OCCO)cc3)[nH]c(=O)c12` [Compound A59], for which the IC50 on Cdk4/cyclin D1 was below 1000 nM; against Cdk2/cyclin E, below 100 nM; against Cdc2/cyclin B, below 100 nM.

As to `CC(C)c1nn(-c2c(Cl)cccc2Cl)c2nc(Cc3ccc(OCCOC(=O)[C@@H](N)C(C)C)cc3)[nH]c(=O)c12` [Compound A60], the IC50 in the test on HCT-116 cells and against Cdk2/cyclin E was below 100 nM throughout.

On to `CCOC(=O)COc1ccc(-c2[nH]nc3c2C(=O)c2c(NC(=O)NN4CCOCC4)cccc2-3)cc1` [Compound A65], for which the values for the IC50 on Cdk4/cyclin D1, against Cdk2/cyclin E and against Cdc2/cyclin B were below 100 nM, below 100 nM and below 10 nM, respectively.

Consider `O=C(O)COc1ccc(-c2n[nH]c3c2C(=O)c2c(NC(=O)NN4CCOCC4)cccc2-3)cc1` [Compound A68], for which the IC50 at Cdk4/cyclin D1 is below 100 nM; against Cdk2/cyclin E, below 10 nM; on Cdc2/cyclin B it was below 100 nM.
